Test results published in ChEMBL document CHEMBL5512665, “A CARM1 Inhibitor Potently Suppresses Breast Cancer Both In Vitro and In Vivo” (J Med Chem, 2024).
Calls of active or inactive are those of the source. The rule behind the calls is not given here.

Legend:
4T1 [1] = test: Potentiation of etoposide induced antitumor activity against mouse 4T1 cells implanted in BALB/C mouse assessed as upregulation of IFNalpha gene expression at 25 mg/kg,ip administrated daily for 12 days in presence of 8 mg/kg etoposide administration by RT-qPCR analysis; type: functional, organism-based; conditions: time 12.0 day
[2] = Toxicity in BALB/C mouse implanted with mouse 4T1 cells assessed as change in body weight at 25 mg/kg,ip administrated daily for 12 days in presence of 8 mg/kg etoposide administration; type: organism-based; conditions: in vivo, 288 h, time 12 day
MCF7 [3] = test: Synergistic antiproliferative activity against human MCF7 cells assessed as downregulation of CCND1 gene expression at 2.5 uM incubated for 6 hrs in presence of fulvestrant by RT-qPCR analysis; type: functional, cell-based
[4] = Toxicity in BALB/C mouse implanted with mouse 4T1 cells assessed as change in lung morphology at 50 mg/kg,ip administrated daily for 14 days; type: organism-based; conditions: in vivo, 336 h, time 14 day
[5] = Toxicity in BALB/C mouse implanted with mouse 4T1 cells assessed as change in lung morphology at 25 mg/kg,ip administrated daily for 14 days; type: organism-based; conditions: in vivo, 336 h, time 14 day
4T1 [6] = test: Antitumor activity against mouse 4T1 cells implanted in BALB/C mouse assessed as increase in infiltration of CD8 positive T cells at 50 mg/kg,ip administrated daily for 14 days by immunohistochemical staining based analysis; type: functional, organism-based; conditions: time 14.0 day
MCF7 [7] = test: Antitumor activity against human MCF7 cells xenografted in BALB/C mouse assessed as downregulation of PGR gene expression at 50 mg/kg,ip administrated every other day for 29 days by RT-qPCR analysis; type: functional, organism-based; conditions: time 29.0 day
MCF7 [8] = test: Synergistic antitumor activity against human MCF7 cells xenografted in BALB/C mouse assessed as downregulation of N-Myc gene expression at 25 mg/kg,ip administrated every other day for 15 days in presence of 5 mg/kg tamoxifen oral administration by RT-qPCR analysis; type: functional, organism-based; conditions: time 15.0 day
[9] = Toxicity in BALB/C mouse xenografted with human MCF7 cells assessed as change in spleen morphology at 50 mg/kg,ip administrated every other day for 29 days; type: organism-based; conditions: in vivo, 696 h, time 29 day
MCF7 [10] = test: Antitumor activity against human MCF7 cells xenografted in BALB/C mouse assessed as downregulation of N-Myc gene expression at 50 mg/kg,ip administrated every other day for 29 days by RT-qPCR analysis; type: functional, organism-based; conditions: time 29.0 day
4T1 [11] = test: Antitumor activity against mouse 4T1 cells implanted in BALB/C mouse assessed as inhibition of tumor weight at 25 mg/kg,ip administrated daily for 14 days; type: functional, organism-based; conditions: time 14.0 day
MCF7 [12] = test: Potentiation of etoposide induced antiproliferative activity against human MCF7 cells assessed as upregulation of ISG15 gene expression at 2.5 uM in presence of etoposide by RT-qPCR analysis; type: functional, cell-based
[13] = Toxicity in BALB/C mouse xenografted with human MDA-MB-231 cells assessed as change in kidney morphology at 25 mg/kg,ip administrated daily for 11 days; type: organism-based; conditions: in vivo, 264 h, time 11 day
MCF7 [14] = test: Antitumor activity against human MCF7 cells xenografted in BALB/C mouse assessed as upregulation of IFNalpha gene expression at 50 mg/kg,ip administrated every other day for 29 days by RT-qPCR analysis; type: functional, organism-based; conditions: time 29.0 day
4T1 [15] = test: Potentiation of etoposide induced antiproliferative activity against mouse 4T1 cells assessed as upregulation of IFIT1 gene expression at 2.5 uM in presence of etoposide by RT-qPCR analysis; type: functional, cell-based
MCF7 [16] = test: Antitumor activity against human MCF7 cells xenografted in BALB/C mouse assessed as downregulation of FOXC1 gene expression at 50 mg/kg,ip administrated every other day for 29 days by RT-qPCR analysis; type: functional, organism-based; conditions: time 29.0 day
T47D = test: Antiproliferative activity against human T47D cells assessed as reduction in cell growth incubated for 7 days by celltiter 96 aqueous one solution cell proliferation assay; conditions: 168 h
MDA-MB-231 [17] = test: Antiproliferative activity against human MDA-MB-231 cells assessed as reduction in cell growth incubated for 7 days by celltiter 96 aqueous one solution cell proliferation assay; conditions: MDA-MB-231, 168 h
MDA-MB-231 [18] = test: Antitumor activity against human MDA-MB-231 cells xenografted in BALB/C mouse assessed as inhibition of tumor growth at 25 mg/kg,ip administrated daily for 11 days; type: functional, organism-based; conditions: time 11.0 day
MCF7 [19] = test: Antitumor activity against human MCF7 cells xenografted in BALB/C mouse assessed as downregulation of C-Myc gene expression at 25 mg/kg,ip administrated every other day for 29 days by RT-qPCR analysis; type: functional, organism-based; conditions: time 29.0 day
4T1 [20] = test: Potentiation of etoposide induced antiproliferative activity against mouse 4T1 cells assessed as upregulation of IFNalpha gene expression at 2.5 uM in presence of etoposide by RT-qPCR analysis; type: functional, cell-based
MCF7 [21] = test: Synergistic antiproliferative activity against human MCF7 cells assessed as downregulation of TFF1 gene expression at 2.5 uM incubated for 6 hrs in presence of tamoxifen by RT-qPCR analysis; type: functional, cell-based
MCF7 [22] = test: Synergistic antiproliferative activity against human MCF7 cells assessed as inhibition of cell growth at 2.5 uM incubated for 7 days in presence of fulvestrant by celltiter 96 aqueous one solution cell proliferation assay; type: functional, cell-based; conditions: time 7.0 day
4T1 [23] = test: Antitumor activity against mouse 4T1 cells implanted in BALB/C mouse assessed as upregulation of ISG15 gene expression at 25 mg/kg,ip administrated daily for 14 days by RT-qPCR analysis; type: functional, organism-based; conditions: time 14.0 day
4T1 [24] = test: Potentiation of etoposide induced antiproliferative activity against mouse 4T1 cells assessed as inhibition of colony formation at 2.5 uM incubated for 10 days in presence of etoposide by crystal violet staining based analysis; type: functional, cell-based; conditions: time 10.0 day
4T1 [25] = test: Antitumor activity against mouse 4T1 cells implanted in BALB/C mouse assessed as upregulation of ISG15 gene expression at 50 mg/kg,ip administrated daily for 14 days by RT-qPCR analysis; type: functional, organism-based; conditions: time 14.0 day
[26] = Toxicity in BALB/C mouse xenografted with human MCF7 cells assessed as change in liver morphology at 25 mg/kg,ip administrated every other day for 29 days; type: organism-based; conditions: in vivo, 696 h, time 29 day
[27] = Toxicity in BALB/C mouse xenografted with human MCF7 cells assessed as change in lung morphology at 25 mg/kg,ip administrated every other day for 29 days; type: organism-based; conditions: in vivo, 696 h, time 29 day
[28] = Toxicity in BALB/C mouse xenografted with human MCF7 cells assessed as change in liver morphology at 50 mg/kg,ip administrated every other day for 29 days; type: organism-based; conditions: in vivo, 696 h, time 29 day
MCF7 [29] = test: Synergistic antiproliferative activity against human MCF7 cells assessed as downregulation of TFF1 gene expression at 2.5 uM incubated for 6 hrs in presence of fulvestrant by RT-qPCR analysis; type: functional, cell-based
[30] = Toxicity in BALB/C mouse implanted with mouse 4T1 cells assessed as change in body weight at 50 mg/kg,ip administrated daily for 14 days; type: organism-based; conditions: in vivo, 336 h, time 14 day
MCF7 [31] = test: Antitumor activity against human MCF7 cells xenografted in BALB/C mouse assessed as downregulation of TFF1 gene expression at 25 mg/kg,ip administrated every other day for 29 days by RT-qPCR analysis; type: functional, organism-based; conditions: time 29.0 day
MCF7 [32] = test: Synergistic antiproliferative activity against human MCF7 cells assessed as downregulation of GREB1 gene expression at 2.5 uM incubated for 6 hrs in presence of tamoxifen by RT-qPCR analysis; type: functional, cell-based

For `Cc1ccc(-c2nc(N3CCN(CCN(C)C)CC3)ncc2-c2ccoc2)cc1.Cl.Cl`, which Activity (4T1 [1]) is on record?
Its Activity is “Active”.

And the Activity [2]?
The Activity was “Non-Toxic”.

What about the Activity (MCF7 [3]) of the same compound?
The Activity was “Active”.

What about the Activity [4] of the same compound?
The Activity was “Non-Toxic”.

What about the Activity [5] of the same compound?
Its Activity is “Non-Toxic”.

And the Activity (4T1 [6])?
The Activity was “Active”.

What about the Activity (MCF7 [7]) of the same compound?
The Activity was “Active”.

And the Activity (MCF7 [8])?
Its Activity is “Active”.

What about the Activity [9] of the same compound?
The Activity was “Non-Toxic”.

And the Activity (MCF7 [10])?
Its Activity is “Active”.

What about the Activity (4T1 [11]) of the same compound?
Its Activity is “Active”.

What about the Activity (MCF7 [12]) of the same compound?
Its Activity is “Active”.

And the Activity [13]?
Its Activity is “Non-Toxic”.

What about the Activity (MCF7 [14]) of the same compound?
The Activity was “Active”.

What about the Activity (4T1 [15]) of the same compound?
The Activity was “Active”.

What about the Activity (MCF7 [16]) of the same compound?
The Activity was “Active”.

And the EC50 (T47D)?
The EC50 was 4.74 µM.

And the EC50 (MDA-MB-231 [17])?
Its EC50 is 3.75 µM.

What about the Activity (MDA-MB-231 [18]) of the same compound?
The Activity was “Active”.

And the Activity (MCF7 [19])?
Its Activity is “Active”.

What about the Activity (4T1 [20]) of the same compound?
The Activity was “Active”.

What about the Activity (MCF7 [21]) of the same compound?
Its Activity is “Active”.

What about the Activity (MCF7 [22]) of the same compound?
Its Activity is “Active”.

What about the Activity (4T1 [23]) of the same compound?
The Activity was “Active”.

What about the Activity (4T1 [24]) of the same compound?
Its Activity is “Active”.

And the Activity (4T1 [25])?
The Activity was “Active”.

What about the Activity [26] of the same compound?
Its Activity is “Non-Toxic”.

What about the Activity [27] of the same compound?
The Activity was “Non-Toxic”.

And the Activity [28]?
Its Activity is “Non-Toxic”.

What about the Activity (MCF7 [29]) of the same compound?
The Activity was “Active”.

And the Activity [30]?
The Activity was “Non-Toxic”.

And the Activity (MCF7 [31])?
The Activity was “Active”.

What about the Activity (MCF7 [32]) of the same compound?
Its Activity is “Active”.
